# Reference: patent publication US20250275959A1, “COMPOUNDS AND METHODS OF THEIR USE” (LEXICON PHARMACEUTICALS, INC., priority 2024, published 2025)
# Legend:
# [1] = biological target: T1, hACSL5 (Homo sapiens (Human), UniProt Q9ULC5); test: Cell-based assay (CBA) with B12FA in hACSL5-transfected Expi293F / FlpIn TRex293 cells; details: hACSL5-expressing cells
# Excerpt: To assess the cell penetration and cellular activity of the compounds, a cell-based assay (CBA) was used to detect compound potency in living cells. The assay utilized the fluorescent fatty acid analogue B12FA, a boron-dipyrromethene (BODIPY™) labelled C12 fatty acid that can be incorporated into glycerophosphocholine in the cytoplasmic oil droplets of live cells. A concentration-dependent, red-shifted fluorescence can be induced by the formation of BODIPY™ excimers in the oil droplets.
# Expi293F cells transfected with full length hACSL5 plasmid were selected using 1 mg/mL G418 culture medium and clones were selected by in vitro whole cell lysate (WCL) assay. The cell passage number used in the Expi293 CBA assay could not be used beyond 10 passages due to a decrease in hACSL5 expression. Therefore, a CBA using FlpIn TRex293 cells for inducible expression of hACSL5 was also established.
# FlpIn TRex293 cells transfected with hACSL5 plasmid were selected in culture medium containing 15 µg/ml Blasticidin and 150 µg/ml Hygromycin. For cell-based assays, stable transfected hACSL5 cells were seeded onto a 96-well plate at 30-50k/well and incubated overnight. For the inducible system, […] tetracycline (or doxycycline) was added to culture medium of FlpIn TRex293 hACSL5 cells on the day before the assay to induce expression of hACSL5. The next day, growth media was replaced with culture medium without FBS and glucose (DMEM glucose (-), ThermoFisher) and cells were incubated for an hour before treating cells with serial diluted compounds containing 20 µM B12FA (ThermoFisher) for another 3 hours in the above medium. Cells were then fixed in 4% formaldehyde for 10 minutes and washed twice with PBS. The plate was read using the Cytation 5 imaging system with an excitation wavelength of 485 nm and observed emissions at 630 nm and 520 nm. The percentage of inhibition was calculated as: […]
# wherein A is the ratio of emission intensities at 630 nm/520 nm in the absence of inhibitor (maximum ratio); B is the ratio of the intensities at those wavelengths in the presence of […] of the test compound or non-induced cells (minimum ratio); and X is the ratio of the intensities at a given compound concentration.
# (§1) Concentration-response titration points for each compound tested were filled to the Hill equation yielding concentrations of half maximal inhibition […] and maximal inhibition values.
# Target sequence in this assay (Q9ULC5 whole entry): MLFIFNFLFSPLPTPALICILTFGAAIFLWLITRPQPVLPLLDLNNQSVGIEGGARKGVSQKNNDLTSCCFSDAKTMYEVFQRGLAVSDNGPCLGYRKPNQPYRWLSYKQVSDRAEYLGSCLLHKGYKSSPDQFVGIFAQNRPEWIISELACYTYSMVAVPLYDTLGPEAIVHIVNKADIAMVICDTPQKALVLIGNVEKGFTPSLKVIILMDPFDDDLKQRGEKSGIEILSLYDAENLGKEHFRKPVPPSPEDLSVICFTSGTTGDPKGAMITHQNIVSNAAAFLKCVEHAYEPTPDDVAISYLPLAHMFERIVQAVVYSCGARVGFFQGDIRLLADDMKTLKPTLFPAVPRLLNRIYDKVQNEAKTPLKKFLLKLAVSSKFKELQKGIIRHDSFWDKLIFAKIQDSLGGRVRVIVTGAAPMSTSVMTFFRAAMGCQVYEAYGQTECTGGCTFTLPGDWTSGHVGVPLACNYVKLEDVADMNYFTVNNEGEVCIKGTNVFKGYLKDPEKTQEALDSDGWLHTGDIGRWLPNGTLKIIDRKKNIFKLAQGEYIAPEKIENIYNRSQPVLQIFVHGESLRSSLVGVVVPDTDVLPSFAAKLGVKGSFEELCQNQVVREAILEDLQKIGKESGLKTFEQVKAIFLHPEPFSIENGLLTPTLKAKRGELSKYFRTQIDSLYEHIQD
# [2] = biological target: T1, hACSL5; test: Human ACSL5 coupled enzyme Amplex Red assay; format: biochemical; details: read-out: hACSL5 IC50
# Method: Human ACSL5 (33-683) was cloned with a C-terminal 6 His tag and expressed in insect cells (sf9) as per standard insect cell expression protocols. Human ACSL5 was enriched by affinity nickel affinity chromatography followed by Superdex S200 gel filtration column equilibrated in 20 mM HEPES pH 7.8, 500 mM NaCl, 1 mM TCEP, 5% glycerol, 0.1% Triton X^100.
# Inhibition of ACSL5 enzyme activity was monitored with a coupled enzyme Amplex Red assay.
# The assay is carried out in 384-well microtiterplates. In a total volume of […], compounds are preincubated with 20 nM ACSL5, in a buffer containing 150 mM MOPS-NaOH, 12 mM MgCl2, 0.03% (v/v) Triton X-100, 2.79 U mL-1 Peroxidase and 24 U mL-1 Acyl-CoA Oxidase (pH 7.6). The reaction is started by the addition of substrate and co factors (25 μM oleate, 30 μM CoA, 1 mM ATP and 50 μM Amplex Red) and the fluorescence detected after 10 minutes at 25° C. with a fluorescence reader (BMG-Fluostar; BMG-Technologies) using an excitation wavelength of 535 nm and an emission wavelength of 590 nm.
# as §1
# Target sequence in this assay (Q9ULC5 33-683): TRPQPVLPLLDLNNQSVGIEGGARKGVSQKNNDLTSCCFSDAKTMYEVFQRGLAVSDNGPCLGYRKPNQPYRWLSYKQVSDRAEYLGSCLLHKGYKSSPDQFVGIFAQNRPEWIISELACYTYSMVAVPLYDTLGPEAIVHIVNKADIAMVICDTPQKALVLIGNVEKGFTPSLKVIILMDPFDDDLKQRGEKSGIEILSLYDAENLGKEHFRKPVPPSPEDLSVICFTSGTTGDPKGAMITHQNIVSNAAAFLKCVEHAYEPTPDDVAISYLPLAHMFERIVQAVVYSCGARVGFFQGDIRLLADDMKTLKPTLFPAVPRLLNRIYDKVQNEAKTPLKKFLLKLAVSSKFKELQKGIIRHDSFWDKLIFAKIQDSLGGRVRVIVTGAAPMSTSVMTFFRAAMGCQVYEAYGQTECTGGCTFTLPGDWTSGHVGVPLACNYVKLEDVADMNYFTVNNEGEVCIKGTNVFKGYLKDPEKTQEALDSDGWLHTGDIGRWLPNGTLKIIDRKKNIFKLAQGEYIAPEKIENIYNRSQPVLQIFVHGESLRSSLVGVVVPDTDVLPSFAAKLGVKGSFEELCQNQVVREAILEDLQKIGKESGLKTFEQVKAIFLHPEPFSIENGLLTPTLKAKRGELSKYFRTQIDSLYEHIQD
Compound,IC50 [1] [nM],IC50 [2] [nM]
"CC[C@@H](Oc1ccc(C(=O)NS(=O)(=O)N2CC3(CC(OC4CCN(C)CC4)C3)C2)c(F)c1F)c1ccc(OCC2CC2)cn1 [(R)-4-(1-(5-(cyclopropylmethoxy)pyridin-2-yl)propoxy)-2,3-difluoro-N-((6-((1-methylpiperidin-4-yl)oxy)-2-azaspiro[3.3]heptan-2-yl)sulfonyl)benzamide]",> 500,100 to 500
"CC[C@@H](Oc1ccc(C(=O)NS(=O)(=O)N2CCN(C)CC2)c(F)c1F)c1ccc(OC2CC(OC(F)F)C2)cn1 (stereo partly drawn) [4-((R)-1-(5-((1R,3R)-3-(difluoromethoxy)cyclobutoxy)pyridin-2-yl)propoxy)-2,3-difluoro-N-((4-methylpiperazin-1-yl)sulfonyl)benzamide]",100 to 500,100 to 500
"CC[C@@H](Oc1ccc(C(=O)NS(=O)(=O)N2CCN(C)CC2)c(F)c1F)c1ccc(OC2CC(OC)C2)cn1 (stereo partly drawn) [2,3-difluoro-4-((R)-1-(5-((1R,3R)-3-methoxycyclobutoxy)pyridin-2-yl)propoxy)-N-((4-methylpiperazin-1-yl)sulfonyl)benzamide]",100 to 500,100 to 500
"CC[C@@H](Oc1ccc(C(=O)NS(=O)(=O)N2CC3(CN(C)C3)C2)c(F)c1F)c1ccc(OCC2CC2)cn1 [(R)-4-(1-(5-(cyclopropylmethoxy)pyridin-2-yl)propoxy)-2,3-difluoro-N-((6-methyl-2,6-diazaspiro[3.3]heptan-2-yl)sulfonyl)benzamide]",,100 to 500
CC(Oc1ccc(C(=O)NS(=O)(=O)c2ccc(CN)cc2)cc1C(F)(F)F)c1cccc(Oc2cncnc2)c1 (stereo not drawn) [N-((4-(aminomethyl)phenyl)sulfonyl)-4-(1-(3-(pyrimidin-5-yloxy)phenyl)ethoxy)-3-(trifluoromethyl)benzamide],,100 to 500
CCCCCOc1cccc(C(C)Oc2ccc(C(=O)NS(=O)(=O)c3ccc(CN)cc3)cc2C(F)(F)F)c1 (stereo not drawn) [N-((4-(aminomethyl)phenyl)sulfonyl)-4-(1-(3-(pentyloxy)phenyl)ethoxy)-3-(trifluoromethyl)benzamide],,100 to 500
CCCC(C)COc1cccc(C(C)Oc2ccc(C(=O)NS(=O)(=O)c3ccc(CN)cc3)cc2C(F)(F)F)c1 (stereo not drawn) [N-((4-(aminomethyl)phenyl)sulfonyl)-4-(1-(3-((2-methylpentyl)oxy)phenyl)ethoxy)-3-(trifluoromethyl)benzamide],,> 500
"CC[C@@H](Oc1ccc(C(=O)NS(=O)(=O)N2CC(OC3CCN(C)CC3)C2)c(F)c1F)c1ccc(Oc2ccccn2)cn1 [(R)-2,3-difluoro-N-((3-((1-methylpiperidin-4-yl)oxy)azetidin-1-yl)sulfonyl)-4-(1-(5-(pyridin-2-yloxy)pyridin-2-yl)propoxy)benzamide]",,100 to 500
"CC[C@@H](Oc1ccc(C(=O)NS(=O)(=O)N2CCC(OCCN(C)C)CC2)c(F)c1F)c1ccc(OCCOC)cn1 [(R)-N-((4-(2-(dimethylamino)ethoxy)piperidin-1-yl)sulfonyl)-2,3-difluoro-4-(1-(5-(2-methoxyethoxy)pyridin-2-yl)propoxy)benzamide]",,> 500
NCc1ccc(S(=O)(=O)NC(=O)c2ccc(OCC3CCCC3)c(C(F)(F)F)c2)cc1 [N-((4-(aminomethyl)phenyl)sulfonyl)-4-(cyclopentylmethoxy)-3-(trifluoromethyl)benzamide],,> 500
"CC[C@@H](Oc1ccc(C(=O)NS(=O)(=O)N2CCC(OC3CCN(C)CC3)CC2)c(F)c1F)c1ccc(OCCOC)cn1 [(R)-2,3-difluoro-4-(1-(5-(2-methoxyethoxy)pyridin-2-yl)propoxy)-N-((4-((1-methylpiperidin-4-yl)oxy)piperidin-1-yl)sulfonyl)benzamide]",,> 500
"CC[C@@H](Oc1ccc(C(=O)NS(=O)(=O)N2CC(OC3CCN(C)CC3)C2)c(F)c1F)c1ccc(OCC2CC2)cn1 [(R)-4-(1-(5-(cyclopropylmethoxy)pyridin-2-yl)propoxy)-2,3-difluoro-N-((3-((1-methylpiperidin-4-yl)oxy)azetidin-1-yl)sulfonyl)benzamide]",,100 to 500
"CC[C@@H](Oc1ccc(C(=O)NS(=O)(=O)N2CC3=C(CN(C)C3)C2)c(F)c1F)c1ccc(Oc2ccccn2)cn1 [(R)-2,3-difluoro-N-((5-methyl-3,4,5,6-tetrahydropyrrolo[3,4-c]pyrrol-2(1H)-yl)sulfonyl)-4-(1-(5-(pyridin-2-yloxy)pyridin-2-yl)propoxy)benzamide]",,100 to 500
CC(Oc1ccc(C(=O)NS(=O)(=O)CCN)cc1C(F)(F)F)c1cccc(Oc2ccccc2)c1 (racemic) [rac-(R)-N-((2-aminoethyl)sulfonyl)-4-(1-(3-phenoxyphenyl)ethoxy)-3-(trifluoromethyl)benzamide],,100 to 500

# Further lines, results first:
IC50 [1] [nM],IC50 [2] [nM],Compound
100 to 500,< 100,"CC[C@@H](Oc1ccc(C(=O)NS(=O)(=O)N2CCC(OC3CCN(C)CC3)CC2)c(F)c1F)c1cc(Oc2ccccn2)ccn1 [(R)-2,3-difluoro-N-((4-((1-methylpiperidin-4-yl)oxy)piperidin-1-yl)sulfonyl)-4-(1-(4-(pyridin-2-yloxy)pyridin-2-yl)propoxy)benzamide]"
< 100,< 100,"CC[C@@H](Oc1ccc(C(=O)NS(=O)(=O)N2CCN(CC3CC3)CC2)c(F)c1F)c1ccc(Oc2ccccn2)cn1 [(R)-N-((4-(cyclopropylmethyl)piperazin-1-yl)sulfonyl)-2,3-difluoro-4-(1-(5-(pyridin-2-yloxy)pyridin-2-yl)propoxy)benzamide]"
< 100,< 100,"CC[C@@H](Oc1ccc(C(=O)NS(=O)(=O)N2CCN(CC(C)(C)O)CC2)c(F)c1F)c1ccc(Oc2ccccn2)cn1 [(R)-2,3-difluoro-N-((4-(2-hydroxy-2-methylpropyl)piperazin-1-yl)sulfonyl)-4-(1-(5-(pyridin-2-yloxy)pyridin-2-yl)propoxy)benzamide]"
< 100,< 100,"CC[C@@H](Oc1ccc(C(=O)NS(=O)(=O)N2CCN(C)C(C)(C)C2)c(F)c1F)c1ccc(OCC2CC2)cn1 [(R)-4-(1-(5-(cyclopropylmethoxy)pyridin-2-yl)propoxy)-2,3-difluoro-N-((3,3,4-trimethylpiperazin-1-yl)sulfonyl)benzamide]"
< 100,< 100,"CC[C@@H](Oc1ccc(C(=O)NS(=O)(=O)N2CCN(CC(C)(C)F)CC2)c(F)c1F)c1ccc(Oc2ccccn2)cn1 [(R)-2,3-difluoro-N-((4-(2-fluoro-2-methylpropyl)piperazin-1-yl)sulfonyl)-4-(1-(5-(pyridin-2-yloxy)pyridin-2-yl)propoxy)benzamide]"
< 100,< 100,"CC[C@@H](Oc1ccc(C(=O)NS(=O)(=O)c2ccc(OCCNC3CC3)cc2)c(F)c1F)c1ccc(OCC2CC2)cn1 [(R)-N-((4-(2-(cyclopropylamino)ethoxy)phenyl)sulfonyl)-4-(1-(5-(cyclopropylmethoxy)pyridin-2-yl)propoxy)-2,3-difluorobenzamide]"
100 to 500,< 100,"CC[C@@H](Oc1ccc(C(=O)NS(=O)(=O)N2CCC(OC3CCN(CC(C)(C)O)CC3)CC2)c(F)c1F)c1ccc(OCC2CC2)cn1 [(R)-4-(1-(5-(cyclopropylmethoxy)pyridin-2-yl)propoxy)-2,3-difluoro-N-((4-((1-(2-hydroxy-2-methylpropyl)piperidin-4-yl)oxy)piperidin-1-yl)sulfonyl)benzamide]"
,< 100,"CC[C@@H](Oc1ccc(C(=O)NS(=O)(=O)N2CCN(CCCF)CC2)c(F)c1F)c1ccc(OCC2CC2)cn1 [(R)-4-(1-(5-(cyclopropylmethoxy)pyridin-2-yl)propoxy)-2,3-difluoro-N-((4-(3-fluoropropyl)piperazin-1-yl)sulfonyl)benzamide]"
,< 100,"CC[C@@H](Oc1ccc(C(=O)NS(=O)(=O)c2ccc(OCCNC)cc2)c(F)c1F)c1ccc(OCC2CC2)cn1 [(R)-4-(1-(5-(cyclopropylmethoxy)pyridin-2-yl)propoxy)-2,3-difluoro-N-((4-(2-(methylamino)ethoxy)phenyl)sulfonyl)benzamide]"
